± gives the expanded uncertainty stated by the source.

The conditions of the data set: Crystal; visual observation.

In the case of `c1ccc2cc3ccccc3cc2c1` [anthracene], the Normal melting temperature was determined as 216 ± 1 °C.

The record behind these values is the NIST ThermoML archive (doi:10.1021/je060380p).
